Experimental data taken from US5414001A, “Antineoplastic pyrrolo[4,3,2-de]quinolin-8(1H)-ones” (American Cyanamid Company, priority 1993, dated 1995).
In brackets after ≈: the same amount, converted by molar mass. Several values for one entry are separate records, joined by “and”; a condition that tells them apart may be missing. Equal values may be shown once. Where a name gives a salt, the structure may show the parent alone. Read-outs that look alike come from different tables or passages of the source.

How the values were obtained:
[1] = system: DDP (Cisplatin resistant ovarian carcinoma cell line) / S (A2780); test: SRB cytotoxicity ratio DDP/S (cisplatin resistance); assay type: cell-based, human
[2] = system: panel of >20 human tumor cell lines; test: In vitro tumor panel evaluation, Sulforhodamine B (SRB) cytotoxicity assay; assay type: cell-based; conditions: for IC50: Homo sapiens
[3] = system: Ovcar3 human ovarian carcinoma; parameters: species or system human tumor in Balb/C nu/nu athymic mice; conditions: in vivo
[4] = system: HCT15 / SKBR3; test: SRB cytotoxicity ratio HCT15/SKBR3 (topoisomerase resistance); assay type: cell-based, human; conditions: 2880 min
[5] = system: MIP / SW620; test: SRB cytotoxicity ratio MIP/SW620 (MDR, P-glycoprotein resistance); assay type: cell-based, human; conditions: 2880 min
[6] = system: CaCo2 / CX1; conditions: human, Caco-2, 48 h
Procedure: (§4) The cytotoxic activity of the pyrrolo[4,3,2-de]quinolin-8(1H)-ones against a panel of >20 human tumor cell lines is determined using the Sulforhodamine B protein dye-binding colorimetric cytotoxicity assay (SRB) described by Skehan et al. (Journal National Cancer Institute 82:1107-1112, 1990), as modified by Monks et al., (Journal National Cancer Institute 83: 757-766, 1991). […] Positive controls (i.e., etoposide) are included in every experiment. Treatments are for 48 hours, after which cells are fixed in 10% trichloroacetic acid (10% final concentration), washed five times with deionized water and stained with SRB solution (0.4% in glacial acetic acid). Protein-bound stain is solubilized with 0.1 ml tris buffer and the adsorbance values are recorded with a microplate reader. Duplicate plates of cells are fixed with trichloroacetic acid at the time of drug addition to establish To values, as described by Monks et al. (JNCl, 83: 757-766, 1991). The effect of drug treatments over the five-long range of concentrations is calculated using the formula, T--To/C--To, to determine the IC50 values.
(§5) 3) The ratio values for DDP/S; CaCo2/CX1; MIP/SW620, and; HCT15/SKBR3 refer to the IC50 value for resistant cell lines included in the tumor cell panel, divided by the IC50 value for corresponding drug sensitive cell lines. For example, DDP is a Cisplatin resistant ovarian carcinoma cell line, and S is the corresponding parent drug sensitive ovarian carcinoma cell line (A2780). […] CaCo2 is a slow growing non P-glycoprotein multidrug resistant colon carcinoma cell line. MIP is a colon carcinoma cell line that expresses P-glycoprotein and is multidrug resistant; SW620 is a drug sensitive colon carcinoma cell line. HCT15 is a colon carcinoma cell line that is resistant to topoisomerase inhibitors and SKBR3 is a breast carcinoma that is very sensitive to topoisomerase inhibitors.

[7] = system: CaCo2 / CX1; test: SRB cytotoxicity ratio CaCo2/CX1 (growth kinetics); conditions: IC50 resistant / IC50 sensitive cell line, 2880 min
Procedure: as §4, §5

[8] = system: P388 murine leukemia; parameters: species or system murine (mice); conditions: mouse, in vivo
[9] = system: BR513; assay type: cell-based
[10] = system: E. coli 300; test: Antibacterial agar diffusion assay; assay type: cell-based; parameters: concentration or dose not given beside the values
[11] = system: E. faecium 379; test: Antibacterial agar diffusion assay; assay type: cell-based; conditions: H = hazy zones
Procedure: (§1) One hundred fifty milliliters of agar medium are seeded with 1 ml of diluted culture and aseptically poured into 9 inch×9 inch Nunc bioassay plates. The twenty-five microliters of the test sample dissolved in DMSO are placed in 5.5 mmwells that are cut into agar layer which has been pre-seeded with the test bacterial strains. The plates are incubated at 37° C. for 18-24 hours. Zones of inhibition are recorded.
(§2) ALL SAMPLES IN 20% DMSO
(§3) AGAR DIFFUSION ASSAY 25 microliter sample in 5.5 mm well

[12] = system: S. aureus cipro r 400; test: Antibacterial agar diffusion assay; assay type: cell-based; conditions: 64 microgram/ml; H = hazy zones
Procedure: as §1, §2, §3

[13] = system: S. aureus 375; test: Antibacterial agar diffusion assay; assay type: cell-based; conditions: H = hazy zones
[14] = system: S. aureus meth r 310; test: Antibacterial agar diffusion assay; assay type: cell-based; conditions: H = hazy zones
[15] = system: C. freundii 395; test: Antibacterial agar diffusion assay; assay type: cell-based; conditions: 1000 microgram/ml; H = hazy zones
[16] = system: K. pneumoniae 53; test: Antibacterial agar diffusion assay; assay type: cell-based; conditions: H = hazy zones
[17] = system: B. subtilis 17; test: Antibacterial agar diffusion assay; assay type: cell-based; conditions: H = hazy zones
[18] = human, ddp/s ovarian carcinoma cells, 2880 min
[19] = IC50 resistant / IC50 sensitive cell line, cisplatin resistance, 2880 min
[20] = Mean IC50 value for all 20 cell lines, 48 hours, read-out: AVG IC50
[21] = least sensitive cell line, 48 hours, read-out: MAX IC50
[22] = most sensitive cell line, 48 hours, read-out: MIN IC50
[23] = IC50 resistant / IC50 sensitive cell line, topoisomerase resistance
[24] = IC50 resistant / IC50 sensitive cell line, MDR (pglycoprotein) resistance

Row | Compound | CaCO2/CX1 IC50 ratio [6] | DDP/S IC50 ratio [1, 19] | IC50 [2, 20] [µg/mL] | IC50 [2, 21] [µg/mL] | IC50 [2, 22] [µg/mL] | HCT15/SKBR3 IC50 ratio [4, 23] | MIP/SW620 IC50 ratio [5, 24] | further results
1 | COc1cc([C@@H]2c3cc4c(cc3[C@@H](O[C@@H]3O[C@@H]5CO[C@@H](C)O[C@H]5[C@H](O)[C@H]3O)[C@H]3COC(=O)[C@H]23)OCO4)cc(OC)c1O [Etoposide, etoposide, reference compound] | 4.2 | – | – | – | – | – | – | cross resistance in the cisplatin resistant cell line DDP [1]: cross resistant; DDP/S IC50 ratio [1, 18]: 53.0; IC50 value of DDP higher than the parent cell line [1, 18]: 53 fold; IC50 ([2]; 48 h, read-out: AVG IC50): 8.7 µg/mL (≈ 14.8 µM); IC50 ([2]; 48 h, read-out: MAX IC50): 27.9 µg/mL (≈ 47.4 µM); IC50 ([2]; 48 h, read-out: MIN IC50): 0.12 µg/mL (≈ 0.204 µM); Ovcar3 Min T/C % [3]: 62%; HCT15/SKBR3 IC50 ratio ([4]; human, hct15/skbr3 cells): 22.3; HCT15 more resistant than SKBR3 ([4]; human, hct15/skbr3 cells): 22 fold; MIP/SW620 IC50 ratio ([5]; human, mip/sw620 cells): 1.9
2 | Cn1cc2ccnc3c2c1C(=O)C(N)=C3.O=C(O)C(F)(F)F [Example 2, 7-amino-1-methyl-pyrrolo[4,3,2-de]quinolin-8(1H)-one trifluoroacetate] | – | 1.0 | 18 | 25.1 | 2.03 | 6.7 | 0.9 | CaCO2/CX1 IC50 ratio [7]: 0.6
3 | C[N+]1=C2C=C(N)C(=O)c3[nH]cc(c32)CC1 [Example 3, 7-amino-1,3,4,8-tetrahydro-5-methyl-8-oxo-pyrrolo[4,3,2-de]quinolinium trifluoroacetate] | – | – | – | – | – | 1.9 | 1.1 | IC50 ([2]; 48 h, read-out: AVG IC50): 1.7 µg/mL; IC50 ([2]; 48 h, read-out: MAX IC50): 10 µg/mL; IC50 ([2]; 48 h, read-out: MIN IC50): 0.06 µg/mL; P388 ILS % [8]: 18%; BIA BR513 ([9]; 1000 microgram/ml, T = toxic): 8T; Ovcar3 Min T/C % [3]: 37%; CaCO2/CX1 IC50 ratio [7]: 0.3
4 | Cn1cc2c3c1C(=O)C(N/C=C/c1ccc(O)cc1)=CC3=NCC2.O=C(O)C(F)(F)F [Example 5, (E)-7-[[2-(4-hydroxyphenyl)ethenyl]amino]-1-methyl-3,4-dihydropyrrolo[4,3,2-de]quinolin-8(1H)-one trifluoroacetate] | – | 1.1 | 2.3 | 3.44 | 1.23 | 0.3 | 1.1 | CaCO2/CX1 IC50 ratio [7]: 1.5
5 | O=C1C(NC2Cc3cc(Br)c(O)cc3S2)=CC2=NCCc3c[nH]c1c32 (centres unmarked) [Example 6, trifluoroacetate] | 6.3 | 1.8 | – | – | – | – | – | more potent than the reference topoisomerase inhibitor, etoposide [2]: 1 log; ZONES OF INHIBITION ([10]; trifluoroacetate): 12 and 11 and 9; ZONES OF INHIBITION ([11]; 64 microgram/ml): 9H; ZONES OF INHIBITION ([11]; 250 microgram/ml): 11H; ZONES OF INHIBITION ([11]; 1000 microgram/ml): 12H; ZONES OF INHIBITION [12]: 11H; BIA BR513 [9]: 8T; ZONES OF INHIBITION ([13]; 250 microgram/ml): 7H; HCT15/SKBR3 IC50 ratio ([4]; human, hct15/skbr3 cells): 3.5; ZONES OF INHIBITION ([14]; 64 microgram/ml): 8 MM; ZONES OF INHIBITION ([14]; 250 microgram/ml): 9 MM; ZONES OF INHIBITION ([14]; 1000 microgram/ml): 10 MM; MIP/SW620 IC50 ratio ([5]; human, mip/sw620 cells): 5.1
6 | C[N+]1=C2C=C(NCc3cccc4ccccc34)C(=O)c3[nH]cc(c32)CC1 [Example 44, 1,3,4,8-Tetrahydro-5-methyl-7-[(1-naphthalenylmethyl)amino]-8-oxo-pyrrolo[4,3,2-de]quinolinium trifluoroacetate] | 32.0 | 11.3 | 5.6 | 27.1 | 0.02 | 1140.0 | 67.8 | –
7 | C[N+]1=C2C=C(NCc3ccccc3)C(=O)c3[nH]cc(c32)CC1 [Example 46, 1,3,4,8-Tetrahydro-5-methyl-8-oxo-7-[(phenylmethyl)amino]-pyrrolo[4,3,2-de]quinolinium trifluoroacetate] | 5.4 | 1.6 | 7 | 22.3 | 0.2 | 113.0 | 8.3 | –
8 | C[N+]1=C2C=C(NCc3ccc(O)cc3)C(=O)c3[nH]cc(c32)CC1 [Example 49, 1,3,4,8-Tetrahydro-7-[[(4-hydroxyphenyl)methyl]amino]-5-methyl-8-oxo-pyrrolo[4,3,2-de]quinolin-8 (1H)-one trifluoroacetate] | 1.0 | 1.1 | 3.3 | 13.9 | 0.92 | 15.4 | 4.2 | –
9 | CN1CCc2cn(C)c3c2C1=CC(=O)C3=O [Example 52, 1,3,4,5-Tetrahydro-1,5-dimethyl-pyrrolo[4,3,2-de]quinoline-7,8-dione] | 0.8 | 1.1 | 25 (≈ 116 µM) | 50 (≈ 231 µM) | 12.3 (≈ 56.9 µM) | 2.6 | 1.5 | –
10 | C[N+]1=C2C=C(N)C(=O)c3c2c(cn3CCC#N)CC1 [Example 56, 7-Amino-1-(2-cyanoethyl)-1,3,4,8-tetrahydro-5-methyl-8-oxo-pyrrolo[4,3,2-de]quinolinium trifluoroacetate] | 1.4 | 1.0 | 4.7 | 21.5 | 1.56 | 3.1 | 2.0 | –
11 | C[N+]1=C2C=C(NCC(O)c3ccccc3)C(=O)c3[nH]cc(c32)CC1 (centres unmarked) [Example 58, 1,3,4,8-Tetrahydro-7-[2-hydroxy-2-phenylethyl)amino]-5-methyl-8-oxo-pyrrolo[4,3,2-de]quinolinium trifluoroacetate] | 34.0 | 1.5 | 11 | 50 | 0.22 | 227.0 | 167.0 | –
12 | CC[C@]1(O)C[C@H]2CN(CCc3c([nH]c4ccccc34)[C@@](C(=O)OC)(c3cc4c(cc3OC)N(C=O)[C@H]3[C@@](O)(C(=O)OC)[C@H](OC(C)=O)[C@]5(CC)C=CCN6CC[C@]43[C@@H]65)C2)C1 [Vincristine, reference compound] | – | – | – | – | – | – | – | P388 ILS % [8]: > 91%; Ovcar3 Min T/C % [3]: 53%
13 | CINODINE | – | – | – | – | – | – | – | ZONES OF INHIBITION ([10]; 1000 microgram/ml, H = hazy zones): 9 MM; ZONES OF INHIBITION [15]: 8H; ZONES OF INHIBITION ([16]; 16 microgram/ml): 8 MM; ZONES OF INHIBITION ([16]; 64 microgram/ml): 10 MM; ZONES OF INHIBITION ([16]; 250 microgram/ml): 12 MM; ZONES OF INHIBITION ([13]; 250 microgram/ml): 7 MM; ZONES OF INHIBITION ([13]; 1000 microgram/ml): 9 MM; ZONES OF INHIBITION ([14]; 1000 microgram/ml): 7 MM; ZONES OF INHIBITION ([17]; 64 microgram/ml): 8 MM; ZONES OF INHIBITION ([17]; 250 microgram/ml): 11 MM; ZONES OF INHIBITION ([17]; 1000 microgram/ml): 13 MM
